target: T1, Guinea pig liver TGase (Cavia cutleri, UniProt P08587); experiment: Enzyme selectivity: inactivation of tissue type transglutaminase; format: biochemical; conditions: TGAse IC50, Guinea pig liver TGase; 5-min incubation at 37° C. in the absence of substrate
T1 construct: Guinea pig liver TGase; from tissue; host or cells: guinea pig liver
T1 sequence (P08587 2-690): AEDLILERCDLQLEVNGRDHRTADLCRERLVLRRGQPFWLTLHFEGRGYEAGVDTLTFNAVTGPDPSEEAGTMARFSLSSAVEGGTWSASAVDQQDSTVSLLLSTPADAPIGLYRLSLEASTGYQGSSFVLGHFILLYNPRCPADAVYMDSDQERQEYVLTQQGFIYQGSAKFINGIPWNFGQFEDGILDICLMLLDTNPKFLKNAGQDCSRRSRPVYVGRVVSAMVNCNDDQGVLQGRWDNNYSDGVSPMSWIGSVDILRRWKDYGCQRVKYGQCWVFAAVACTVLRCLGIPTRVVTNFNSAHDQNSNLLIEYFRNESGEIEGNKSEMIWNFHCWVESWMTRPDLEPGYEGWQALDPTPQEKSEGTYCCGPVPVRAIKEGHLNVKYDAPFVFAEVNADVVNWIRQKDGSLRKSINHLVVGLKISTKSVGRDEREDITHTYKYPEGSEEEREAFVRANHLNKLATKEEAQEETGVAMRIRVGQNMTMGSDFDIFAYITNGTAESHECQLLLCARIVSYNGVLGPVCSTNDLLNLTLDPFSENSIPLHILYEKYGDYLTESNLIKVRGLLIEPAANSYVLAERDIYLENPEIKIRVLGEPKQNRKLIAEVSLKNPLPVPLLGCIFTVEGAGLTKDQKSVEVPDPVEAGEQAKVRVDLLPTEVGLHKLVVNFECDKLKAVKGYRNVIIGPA
Description: Enzyme selectivity . Inactivation of tissue type transglutaminase: Inhibitor solution in DMSO (5 μL) was added to 250 mM Tris-Cl pH 7.5 containing 40 mM CaCl2 and 1 mM EDTA in a final volume of 42 μL. Guinea pig liver TGase (3 μL, 2.5 mg/mL in 5 mM Tris-HCl pH 7.5, 2 mM EDTA) was added and the mixture was incubated for 5 min. at 37° C.
An assay mixture composed of 50 mM Tris-Cl, pH 8.0, 10 mM CaCl2, 1 mM EDTA, 0.1% poly(ethylene glycol) (app. MW=1000) and 20 μM monodansylcadaverine was prepared in a spectrofluorimetric cell in a final volume of 2952 μL. Dimethylcasein (8 μL, 1% in 50 mM sodium phosphate pH 7.5) was added and the mixture was incubated at 37° C. for a few minutes. To assay the residual enzyme activity, 40 μL of the solution containing the enzyme and the inhibitor was transferred to the assay mixture. The covalent incorporation of monodansylcadaverine into casein was monitored by an increase in fluorescence at λexc=360 nm and λem=500 nm, as previously described ((Curtis, C. G.; Lorand, L. Methods Enzymol. 1976, 45, 177-191). To determine uninhibited enzyme activity, DMSO was used in place of inhibitor solution in the above assay. IC50 values were determined by plotting the percent of remaining enzyme activity against logarithm of inhibitor concentration. IC50 is defined here as inhibitor concentration resulting in 50% enzyme inactivation after 5-min incubation of the enzyme with the inhibitor in the absence of the substrate. Second order rate constants for inactivation were determined using method described by Kitz and Wilson (Kitz, R.; Wilson, I. J.Biol.Chem. 1962,237, 3245).

`O=S(=O)(NCCCCCCNc1nsc2nccn12)c1cccc2ccccc12` [1-naphthyl, N-[6-(imidazo[1,2-d][1,2,4]thiadiazol-3-ylamino)hexyl]naphthalene-1-sulfonamide] was tested. Which IC50 did it give?
Its IC50 is 23 µM.

For `O=S(=O)(Cc1ccccc1)NCCCCCCNc1nsc2nccn12` [2 / CH2Ph, N-[6-(imidazo[1,2-d][1,2,4]thiadiazol-3-ylamino)hexyl]-1-phenylmethanesulfonamide], which IC50 is on record?
Its IC50 is 27 µM.

Which IC50 does the source give for `O=S(=O)(NCCCCCCNc1nsc2nccn12)c1ccc(F)cc1F` [2,4-diF-Ph, 2,4-difluoro-N-[6-(imidazo[1,2-d][1,2,4]thiadiazol-3-ylamino)hexyl]benzenesulfonamide] here?
The IC50 was 23 µM.

`O=S(=O)(NCCCCCCNc1nsc2nccn12)c1ccc(OC(F)(F)F)cc1` [4-OCF3-Ph, N-[6-(imidazo[1,2-d][1,2,4]thiadiazol-3-ylamino)hexyl]-4-trifluoromethoxybenzenesulfonamide] was tested. Which IC50 did it give?
Its IC50 is 31 µM.

`O=C(O)CN(CCCCCCNS(=O)(=O)c1ccccc1[N+](=O)[O-])c1nsc2nccn12` [H / CH2CO2H / 2-NO2-Ph, N-imidazo[1,2-d][1,2,4]thiadiazol-3-yl-N-(6-{[(2-nitrophenyl)sulfonyl]amino}hexyl)glycine] was tested. Which IC50 did it give?
The IC50 was 17 µM.

test system: fibrin cross-linking in human plasma clots; experiment: Inhibition of fibrin cross-linking in plasma clots (125I-fibrinogen, SDS-PAGE); format: biochemical; conditions: platelet-depleted and platelet-rich human plasma clots; inactivator at 40, 80 and 160 μM, added before thrombin and CaCl2
Description: Citrated human plasma (0.3 mL) containing 2-4 μg/mL of ^125I-labeled fibrinogen (specific activity approx. 200 μCi/mg, at least 85% clotability, Amersham Pharmacia Biotech UK Ltd.) was clotted by the addition of CaCl2 (6.4 μL) to a final concentration of 50 mM and thrombin (6.2 μL) to a final concentration of 5 units/mL. Solutions of Factor XIIIa inactivators in DMSO were added just prior to the addition of thrombin and CaCl2. In some cases the inactivator was dissolved and added to plasma in water. To these samples, DMSO (3.2 μL) was added, to make 1% final concentration. Conversely, water (3.2 μL) was added to clots to which inactivator was added in DMSO. In control samples both DMSO (3.2 μL) and water (3.2 μL) were added in place of the inactivator solution. Typically, only 20 μL of the mixture was withdrawn before clotting (the remainder of the solution was used for the fibrinolysis assay) and incubated at 37° C. for 30 min.
100 μL of 9 M urea containing 40 mM DTT was added and the solutions were incubated at 37° C. until the clots were completely dissolved. The samples were analyzed on SDS-PAGE gels using a standard procedure. The amount of radioactivity in each electrophoretic band was quantitated using a Storm 820 (Molecular Dynamics) autoradiography system after exposing the gel to a Kodak Storage Phosphor Screen. […]

With `O=C(O)CN(CCCCCCNS(=O)(=O)c1ccccc1[N+](=O)[O-])c1nsc2nccn12` [H / CH2CO2H / 2-NO2-Ph, N-imidazo[1,2-d][1,2,4]thiadiazol-3-yl-N-(6-{[(2-nitrophenyl)sulfonyl]amino}hexyl)glycine] as the compound, how does the “formation of high molecular weight polymer in plasma clots” value read?
The value was “inhibits the formation of high molecular weight polymer”.

Reference: patent US20030225007A1, “Sulfonamide derivatives of 3-substituted imidazol[1,2-d]-1,2,4-thiadiazoles and 3-substituted-[1,2,4] thiadiazolo[4,5-a] benzimidazole as inhibitors of fibrin cross-linking and transglutaminases” (Apotex Inc., priority 2002, published 2003)
